# Patent US20090131354A1, “miR-126 REGULATED GENES AND PATHWAYS AS TARGETS FOR THERAPEUTIC INTERVENTION” (priority 2007, published 2009)
# Columns and labels:
# [1] = system: H1650 lung cancer cells; assay: Alamar Blue proliferation assay, H1650; assay type: cell-based, human
# Source text: The inventors assessed the therapeutic effect of hsa-miR-126 for lung cancer by using 11 individual lung cancer cell lines. To measure cellular proliferation of lung cancer cells, the following non-small cell lung cancer (NSCLC) cells were used: cells derived from lung adenocarcinoma (A549, H1299, H522, H838, Calu-3, HCC827, HCC2935), cells derived from lung squamous cell carcinoma (H520, H226), cells derived from lung bronchioalveolar carcinoma (H1650), and cells derived from lung large cell carcinoma (H460). Synthetic hsa-miR-126 (Pre-miR™-hsa-miR-126, Ambion cat. no. AM17100) or negative control (NC) miRNA (Pre-miR™ microRNA Precursor Molecule-Negative Control #2; Ambion cat. no. AM17111) was delivered via lipid-based transfection into A549, H1299, H522, H838, Calu-3, HCC827, HCC2935, H520, H1650, and H460 cells, and via electroporation into H226 cells.
# Lipid-based reverse transfections were carried out in triplicate according to a published protocol (Ovcharenko et al., 2005) and the following parameters: Cells (5,000-12,000 per 96 well), 0.1-0.2 μl Lipofectamine™ 2000 (cat. no. 11668-019, Invitrogen Corp., Carlsbad, Calif., USA) in 20 μl OptiMEM (Invitrogen), 30 nM final concentration of miRNA in 100 μl. Electroporation of H226 cells was carried out using the BioRad Gene Pulser Xcell™ instrument (BioRad Laboratories Inc., Hercules, Calif., USA) with the following settings: 5×10^6 cells with 5 μg miRNA in 200 μl OptiMEM (1.6 μM miRNA), square wave pulse at 250 V for 5 ms. Electroporated H226 cells were seeded at 7,000 cells per 96-well in a total volume of 100 μl. All cells except for Calu-3 cells were harvested 72 hours post transfection or electroporation for assessment of cellular proliferation. Calu-3 cells were harvested 10 days post transfection. Proliferation assays were performed using Alamar Blue (Invitrogen) following the manufacturer's instructions. As a control for inhibition of cellular proliferation, siRNA against the motor protein kinesin 11, also known as Eg5, was used. […]
# [2] = system: H460 lung cancer cells; assay: Pair-wise miRNA combinations, Alamar Blue proliferation; assay type: cell-based, human; details: for % proliferation: mock-transfected cells, 48 h
# Source text: miRNAs function in multiple pathways controlling multiple cellular processes. Cancer cells frequently show aberrations in several different pathways, which determine their oncogenic properties. […] The inventors assessed the efficacy of pair-wise miRNA combinations, administering hsa-miR-126 concurrently with either hsa-miR-34a, hsa-miR-124a, hsa-miR-147, hsa-let-7b, hsa-let-7c or hsa-let-7g (Pre-miR™ miRNA, Ambion cat. no. AM17100). H460 lung cancer cells were transiently reverse-transfected in triplicates with each miRNA at a final concentration of 300 pM, resulting in 600 pM of oligonucleotide. For negative controls, 600 pM of Pre-miR™ microRNA
# Precursor Molecule-Negative Control #2 (Ambion cat. no. AM17111) were used. To correlate the effect of various combinations with the effect of the sole miRNA, each miRNA at 300 pM was also combined with 300 pM negative control miRNA. Reverse transfection was carried using the following parameters: 7,000 cells per 96 well, 0.15 μl Lipofectamine™ 2000 (Invitrogen) in 20 μl OptiMEM (Invitrogen), 100 μl total transfection volume. As an internal control for the potency of miRNA, etoposide was added at 10 μM and 50 μM to mock-transfected cells, 24 hours after transfection for the following 48 hours. Cells were harvested 72 hours after transfection and subjected to Alamar Blue assays (Invitrogen). Percent proliferation values from the Alamar Blue assay were normalized to those obtained from cells treated with 600 pM negative control miRNA. Data are expressed as % proliferation relative to negative control miRNA-treated cells (Table 8).
# Additive activity of pair-wise combinations (e.g. hsa-miR-126 plus hsa-let-7b) is defined as an activity that is greater than the sole activity of each miRNA (e.g., the activity of hsa-miR-126 plus hsa-let-7b is greater than that observed for hsa-miR-126 plus NC and the activity of hsa-miR-126 plus hsa-let-7b is greater than that observed for hsa-let-7b plus NC). […]
Compound,"% proliferation ([1]; H1650, 10 μM, relative to NC miRNA (100%)) [%]","% proliferation ([1]; H1650, relative to NC miRNA (100%)) [%]","% proliferation ([2]; H460, 10 μM) [%]","% proliferation ([2]; H460, 50 μM) [%]","% proliferation ([1]; H1650, 30 nM, 72 h, relative to NC miRNA (100%)) [%]","reduction of proliferation ([2]; H460, 300 pM) [%]"
COc1cc([C@@H]2c3cc4c(cc3[C@@H](O[C@@H]3O[C@@H]5CO[C@@H](C)O[C@H]5[C@H](O)[C@H]3O)[C@H]3COC(=O)[C@H]23)OCO4)cc(OC)c1O [etoposide],90.98,60.31,20.19,14.94,,
"hsa-miR-126 (UCGUACCGUGAGUAAUAAUGC; synthetic pre-miR form, further chemistry not given here) [Synthetic hsa-miR-126 (Pre-miR™-hsa-miR-126, Ambion cat. no. AM17100)]",,,,,80.67,10.54
